Test results taken from a melting point compilation (Tetko et al.; mined from patent text by program, amines drawn as free bases though some values may be those of a salt).

Compound	melting point [°C]
Cc1cccc(Br)c1C(=O)c1sc(Nc2ccc(N3CCOCC3)cc2)nc1N	105 to 125
CC(C)(C)C(=O)Nc1n[nH]c(C(C)(C)C)c1Cl	156 to 158
CC1(C)CCn2c(nc(-c3ccncn3)cc2=O)N1CC(=O)c1ccccc1	203 to 205
COc1cc(C(C)C)c2c(c1)S(=O)(=O)N(COC(=O)c1sccc1C)C2=O	132 to 134
CC(=O)N1CCC(C(=O)c2ccc(F)cc2F)CC1	97
O=C(O)C(CSc1ncccn1)CS(=O)(=O)c1ccc(-c2ccc(Cl)cc2)cc1 (configuration not stated)	166 to 168
Cc1ccccc1NC1=CCC(C)n2c1ncc(C(=O)O)c2=O (configuration not stated)	157 to 159
c1cnn2cnnc2c1	140 to 141
CC(=O)N(O)Cc1ccc(Oc2ccccn2)cc1	97 to 99
O=C(/C=C/c1ccccc1Cl)/C=C/c1ccccc1Cl	116 to 118
Clc1cccc(CNc2n[nH]c3ncnc(Nc4cccc(Cl)c4)c23)c1	158 to 163
CCN(C(=O)COC(C)=O)C1=CC(C)(C)CC(C)=C1	38 to 40
CCOC(=O)c1ccc(OCCCCCCCCCCBr)cc1	41 to 42
COc1ccc(C2CC[N+]([O-])(CCC3CCOc4ccccc43)CC2)cc1OC (configuration not stated)	97
O=C1NC(=O)C(Cc2ccc(SCCc3ccccc3)cc2)S1 (configuration not stated)	58 to 65
Cc1ccc(N2C(=O)c3nccnc3C2OC(=O)Oc2ccccc2)nc1 (configuration not stated)	176
CC(=NOCCOc1ccc(CC2SC(=O)N(C(c3ccccc3)(c3ccccc3)c3ccccc3)C2=O)cc1)c1ccc(N(C)S(=O)(=O)c2ccccc2)cc1 (configuration not stated)	143 to 145
O=C1Cc2cc([N+](=O)[O-])c(NC(=O)c3ccncc3)cc2N1	> 300
Cc1c(NCc2ccccc2)c2c(c3c1C(c1ccc(C(C)C)cc1)CO3)CCCC2 (configuration not stated)	98 to 99
O=C1c2cc(OCc3ccccn3)ccc2OCC1Oc1cccnc1 (configuration not stated)	155 to 156
OC1CCCCC1c1ncc[nH]1 (configuration not stated)	133 to 134
COc1cc(C=C2C(=O)NC(=O)N2C)cc(OC)c1O	194 to 196
CCC1(CC)Cc2c(C(=O)O)ccc(OC)c2O1	152 to 154
COc1ccc(Oc2cccc(C(=O)NCCN(O)C(N)=O)c2)cc1	160 to 162
COCc1c(C=NO)nc(Oc2nccc3ccccc23)c2[nH]c3ccccc3c12	107 to 112

Compound	melting point [°C]
O=C(C=C(c1ccccc1)c1ccc(Cl)cc1)Nc1ccc(C(=O)O)cc1	220 to 223
O=C(O)CC(=O)Nc1ccc2c(c1)c(=O)[nH]c(=O)n2CCCCN1CCC(OC(c2ccccc2)c2ccccc2)CC1	166 to 168
Cc1cc(SCc2ccc(OCc3ccccn3)cc2)ccc1OCC(=O)O	150
CN1C2CCC1CC(O)(c1ccc(Cl)cc1)C2 (configuration not stated)	186 to 187
COC(=O)c1cc(Cl)ccc1N(C)S(=O)(=O)c1ccc(C)cc1	65.5 to 67
Cc1cc(C)c2cccc(OCc3c(Cl)ccc(S(=O)(=O)N4CCC[C@H]4C(=O)N4CCN(C(=O)c5ccc(C(N)=NO)cn5)CC4)c3Cl)c2n1	148 to 150
O=C(c1ccc(Cl)c([N+](=O)[O-])c1)c1ccc(F)cc1F	90.5
CC1(N2C(=O)c3cccc([N+](=O)[O-])c3C2=O)C=CC(OC(F)(F)C(F)C(F)(F)F)=CC1 (configuration not stated)	121
O=C(Nc1ccc(Cl)nc1)c1ccccc1	118 to 120
O=C(OC1CCCCC1)c1ccc(Nc2nc(Nc3ccc(C(=O)OC4CCCCC4)cc3)nc(Nc3ccc(C(=O)OC4CCCCC4)cc3)n2)cc1	171 to 173
COc1cc(-c2cnn3c(-c4cccc(NC(=O)CC(C)C)c4)ccnc23)cc(OC)c1OC	86 to 90
CCCc1c(OCc2ccc(C(=O)O)c(OCC)c2)ccc(C(C)=O)c1O	145 to 150
CCON=C(CC)C1=C(O)CC(c2ccc(NC(=O)c3ccccc3C)cc2)CC1=O (configuration not stated)	139 to 140
Cc1noc(-c2cccc(Oc3ccc4c(c3)S(=O)(=O)NCCO4)c2)n1	140
O=C(NCc1ccc(I)cc1Cl)C1CC1	158 to 160
O=C(Nc1ccc(-n2nc(C(F)(F)F)cc2C(F)(F)F)cc1)c1ccno1	202 to 204
Cc1nc(NC(=O)Cc2cccs2)c(Br)c(C)c1Br	154
Cc1ccc(C2COc3c(C)c(C)cc(C)c32)cc1 (configuration not stated)	65 to 66
CC(C)OCC1(C(C)(F)F)c2cc(C#N)ccc2Nc2ncc(Cl)cc21 (configuration not stated)	79 to 81
CC(C)Cn1c(=O)n(C)c(=O)c2c(SCCCC(=O)O)n(Cc3cccc4ccccc34)nc21	149
Cc1c(CCC(=O)O)c2cc(Br)ccc2n1Cc1ccc(Br)cc1	169 to 170
CCOC(=O)c1cn(Cc2ccccc2)c2c(OC)c(F)c(F)c(N)c2c1=O	134 to 135
CC(C)(C)c1ccc2nc(N3CCN(c4ncccc4C(F)(F)F)CC3)[nH]c2c1	247 to 249
C=C(C)Cc1c(O)cc(C)c(NC=O)c1C	207 to 209
COc1ccc(NN=C(Sc2ccc(C#N)cc2)C(C)=O)cc1	182 to 184

Compound	melting point [°C]
CC(=O)Nc1cc2c(c(C(=O)O)c1)NCCO2	253
Cc1nccc(N2CCC(CN3CCN(C(=O)c4ccc(F)cc4)CC3)CC2)n1	127 to 128
COc1ccc(C(=NO)c2ccccc2F)c(Cl)c1Cl	195 to 197
CCc1cn(C2CC(O)C(CNC(=O)C(CC)c3ccccc3)O2)c(=O)[nH]c1=O (configuration not stated)	235 to 236
CC(=O)NC[C@H]1CN(c2cc(F)c(N3CCC(n4nnc(N5CCNCC5)n4)CC3)c(F)c2)C(=O)O1	180 to 185
COc1c(NC(=O)c2cc3cccc(Oc4ccnc(NCCN5CCOCC5)n4)c3n2C)cc(C(C)(C)C)cc1NS(C)(=O)=O	201 to 202
CNC(=O)c1ccc(C2=N[C@H]3CCCC[C@H]3c3cc(OC)c(OC)cc32)cc1 (racemic)	209 to 211
CSCCNC(=O)c1cccc(-c2cccc3c(C)c(Cc4cccc(C(F)(F)F)c4)oc23)c1	138 to 139
O=C(O)CCc1ccc(NS(=O)(=O)c2ccc(Cl)cc2)cn1	144 to 146
CNC(=O)N1CCC(=C2c3ccc(Cl)cc3CCc3cccnc32)CC1	194 to 196
COc1cc(OCc2cccnc2)ccc1/C=C/c1cc(/C=C/c2ccc3[nH]ccc3c2)n[nH]1	127 to 135
CC(=O)OC1(C)CCCCC1C1CCCCC1 (configuration not stated)	35
Cn1c(COc2ccc(CC3SC(=O)NC3=O)cc2)nc2ccc(Oc3ccc(O)cc3)cc21 (configuration not stated)	126 to 131
COc1ccccc1N1CCN(CCCC2(c3ccc(F)cc3)OCc3cc(C#N)ccc32)CC1 (configuration not stated)	147 to 149
Cc1cc(C)c2c(c1C)OC(C)(C)C2c1ccccc1 (configuration not stated)	86 to 87
Cc1cc(=O)c2ccc(OCCCN3CCC(NC(=O)c4ccccc4[N+](=O)[O-])CC3)cc2o1	185 to 187
COC(=O)[C@@H]1[C@H](c2ccccc2)N1S(=O)(=O)c1ccc(C)cc1 (some centres not stated)	85 to 87
O=S(=O)(c1c(-c2ccc(Cl)cc2)[nH]c(Br)c1Br)C(F)(F)C(F)F	138 to 141
CNc1nc(-c2ccccc2)c(CCOC)c2ncnn12	133 to 136
CC(=O)OC1(C(C)=O)C(C)CC2C3CCC4=CC(=O)C=CC4(C)C3=CCC21C (configuration not stated)	230 to 233
O=[N+]([O-])c1cccc2cc(-c3ccccc3)cnc12	112 to 114
CN1CCC(N(C)S(=O)(=O)c2ccc(Nc3nccc(Nc4cc(F)c(F)c(F)c4)n3)cc2)CC1	227
NC(C=Cc1cccs1)=NO	92
COc1ccc(C(=O)NCCN(C)C)cc1	53 to 54
N[C@H]1CC[C@@H](n2ccc(-c3ccc(F)cc3)c2-c2ccncc2)CC1	163 to 164

Compound	melting point [°C]
O=C1NS(=O)Oc2ccccc21 (configuration not stated)	180 to 182
O=C(N[C@H]1CCCNC1=O)c1ccccc1F	166 to 168
Cc1ccc(C(O)CCCO)cc1 (configuration not stated)	43 to 47
Cc1ccc(C)c(-c2cc(C#N)c(NC(=O)[C@@H]3C[C@@H]4CC[C@H]3C4)s2)c1	168 to 169
Cc1ccc2c(=O)n3nccc3[nH]c2n1	> 300
NS(=O)(=O)c1cccc(-c2cn(-c3nc(-c4ccc(Cl)cc4)cc(C(F)(F)F)n3)cn2)c1	225
O=C(Nc1ccccc1Nc1ccccc1)N[C@@H](Cc1ccc(NC(=O)c2c(Cl)cccc2Cl)cc1)C(=O)O	174
CC(C)OC(=O)c1ccccc1SNc1ccc(OC(F)(F)F)cc1	120 to 121
O=C(O)c1cccnc1Cc1ccccc1	180 to 182
COCCNc1nccc(Oc2ccc(NC(=O)c3cc(F)cc(N4CCOCC4)c3)c3ccccc23)n1	95 to 97
COC(=O)c1ccc(C(=O)Nc2cc3c4c(c2)CCCC4(C)CCC3)cc1	217 to 218
Cc1nnc(NC2CCCCC2)s1	192 to 194
CC(C)(C)OC(=O)Nc1ccc2[nH]c(C(=O)OCc3ccccc3)cc2c1	180 to 182
COCOc1ccc(Cl)cc1-c1cc(-c2cccc(N)c2)c(C#N)c(NC(=O)c2ccccc2)n1	174 to 175
O=C(NC(C(=O)O)C1CC(Cl)=NO1)OCC1c2ccccc2-c2ccccc21 (configuration not stated)	175 to 176
COc1c(Cl)ccc(-c2nc(C(=O)OCc3ccccc3)c(Cl)c(N)c2F)c1F	132 to 133
CN1Cc2c(C(=O)O)ncn2-c2ccccc2C1=O	287
O=C(C#Cc1ccc(Cl)cc1Cl)Nc1ccc2oc(CCN3CCCC3)nc2c1	130
Fc1ccc2[nH]cc(C3=CCN(CC4COc5ccc6ncncc6c5O4)CC3)c2c1 (configuration not stated)	233 to 235
CCCOC(=O)c1c(CSc2nccn2C)nc2cc(OC)c(OC)cc2c1-c1ccc(OC)c(OC)c1	131 to 132
C[C@H]1C[C@@](O)(c2cnc(Sc3ccc4c(c3)CC(=O)N4C)s2)CCO1	140
CC(=O)OC1COC(n2c(Br)nc3cc(Cl)c(Cl)cc32)C(OC(C)=O)C1OC(C)=O (configuration not stated)	100 to 110
